Blank lines part the entries; values can stand above or below the molecule they belong to. Residues, ends and D or L forms follow the SMILES beside them. No end group written: not given here.
Key:
[1] = biological target: T1, GST-Rho-kinase-cat-L (bovine, residues 6–553) (Bos taurus, UniProt Q28021); assay: In vitro kinase assay, Rho-kinase-cat-L activity; assay type: biochemical; conditions: for IC50 / Inhibition of Rho-kinase-cat-L activity (in words): S6 rsk substrate peptide as substrate, 50 μM γ-[32P]ATP, 30 °C, scintillation counting, N = 3; for IC50: 10–20 min, cation-exchange membrane; for Inhibition of Rho-kinase-cat-L activity (in words): inhibitor at the indicated concentrations
T1 construct: GST-Rho-kinase-cat-L (bovine, residues 6–553); made in house; host or cells: Sf9 cells (baculovirus)
Protocol: The kinase reactions were performed in 50 μL of a reaction mixture (25 mM Tris-HCl, pH 7.5, 1 mM EDTA, 1 mM EGTA, 1 mM DTT, 5 mM MgCl2, and 50 μM γ-[^32P]ATP [1–20 GBq/mmol]), GST-Rho-kinase-cat-L or other kinases (1–10 nM), and substrates for 10–20 min at 30 °C. The reaction mixtures were applied to cation-exchange membranes and washed with 75 mM phosphoric acid three times, which was followed by scintillation counting.
Figure 4 Direct inhibition of Rho-kinase activity in vitro. (A) In vitro phosphorylation of S6 rsk substrate peptide by Rho-kinase. GST-Rho-kinase-cat-L or GST-ROCK1-cat-L activity was examined using the S6 rsk substrate peptide as a substrate in the presence of γ-[^32P]ATP. GST-MYPT1-684–868 aa-WT or -4A was added at the indicated concentrations. The reaction mixtures were applied onto cation-exchange membranes, followed by scintillation counting. N = 3. (B) Effects of the deletion of DMs on the inhibition of Rho-kinase activity in vitro. GST-Rho-kinase-cat-L activity was examined using the S6 rsk substrate peptide as a substrate in the presence of γ-[^32P]ATP. GST-MYPT1-684–868-4A with or without DMs was added at the indicated concentrations. The reaction mixtures were applied onto cation-exchange membranes, followed by scintillation counting. N = 3. The deletion of DM1 or DM2 moderately weakened the inhibitory effect and the deletion of both DM1 and DM2 completely abrogated the inhibitory effects of the MYPT1 fragment on the Rho-kinase activity. (C) Sequences of the DMs and phosphorylation sites of MYPT1. The sequences of MYPT1 683–715 aa and 836-860 aa and synthetic peptides are shown. Basic (blue), acidic (red), and aliphatic (green) amino acids within DMs are indicated. Phosphorylation sites are replaced by Ala in pseudosubstrate (PS) peptides. (D) Inhibition of Rho-kinase activity by PS2 + DM2 synthetic peptide. GST-Rho-kinase-cat-L activity was examined using the S6 rsk substrate peptide as a substrate in the presence of γ-[^32P]ATP. Synthetic peptides were added at the indicated concentrations. The reaction mixtures were applied onto cation-exchange membranes, followed by scintillation counting. N = 3. (E) Inhibition of Rho-kinase activity by PS1 + DM3 synthetic peptide. GST-Rho-kinase-cat-L activity was examined using the S6 rsk substrate peptide as a substrate in the presence of γ-[^32P]ATP. Synthetic peptides were added at the indicated concentrations. The reaction mixtures were applied onto cation-exchange membranes, followed by scintillation counting. N = 3.

[2] = biological target: T1, GST-Rho-kinase-cat-L (bovine, residues 6–553); assay: In vitro kinase assay, Rho-kinase-cat-L activity; assay type: biochemical; conditions: synthetic peptide at the indicated concentrations, Figure S4, N=3
[3] = system: phosphorylation of GFP-MYPT1 at Thr855 in COS7 cells; assay: Phosphorylation of GFP-MYPT1 in COS7 cells; assay type: cell-based; conditions: GST-MYPT1 fragment coexpressed with full-length GFP-MYPT1 in COS7 cells, 24 h, immunoblot anti-MYPT1-pT855 normalized by GFP-MYPT1
Protocol: COS7 cells were seeded on a 6-well dish at a density of 1.8 × 10^5 cells/well in DMEM with 10% fetal bovine serum and cultured overnight. The cells were transfected with plasmids using LIPOFECTAMINE 2000^TM reagent, according to the manufacture’s protocol. After 24 h, the cells were washed twice with PBS, lysed in SDS–PAGE sample buffer and, subjected to immunoblot analysis using the indicated antibodies. The signals were visualized using HRP-conjugated secondary antibody and ECL prime detecting reagent (Cytiva, Marlborough, MA, USA) by X-lay film or imaging analyzer LAS 4010 (Cytiva, Marlborough, MA, USA). Signal intensities of phospho-GFP-MYPT1 and GFP-MYPT1 were analyzed using Fiji software and quantified from standard curves. The phospho-GFP-MYPT1 levels were normalized by GFP-MYPT1 levels.
Figure 3 Inhibition of MYPT1 phosphorylation by the Rho-kinase-binding fragment of MYPT1. […] The cell lysates were analyzed by immunoblot analysis using anti-MYPT1-pT855 (top panel), anti-GFP (middle), or anti-GST (bottom) antibodies. The phospho-GFP-MYPT1 levels were quantified and normalized by GFP-MYPT1 levels. […] The percentages of cells with stress fibers throughout the cell (SF(++)), cells with stress fibers partly in the cell (SF(+)), and cells without stress fibers (SF(–)) were analyzed. […]

[4] = system: NIH3T3 cells; assay: Actin stress fiber formation in NIH3T3 cells; assay type: cell-based; conditions: GST-MYPT1 fragment expressed in NIH3T3 cells, 24 h, phalloidin staining, N = 4
Protocol: NIH3T3 cells were seeded on polylysine-coated 13-mm coverslips at a density of 4 × 10^4 cells/well in a 6-well dish and cultured in DMEM with 10% calf serum overnight. The cells were transfected with plasmid using LIPOFECTAMINE LTX reagent (Thermo Fisher Scientific, Waltham, MA, USA), according to the manufacture’s protocol. After 24 h, the cells were incubated in fresh DMEM containing 10% calf serum for 20 min, fixed with 3.7% formaldehyde in PBS for 10 min and then treated with PBS containing 0.2% Triton X-100 for 10 min. The fixed cells were blocked with 1% bovine serum albumin for 30 min and stained with the indicated antibodies. Cover slips were mounted with Fluoromount (Diagnostic Biosystems, Pleasanton, CA, USA) and the fluorescence was examined using a confocal laser scanning microscope LSM 780 and LSM5 PASCAL built around an Axio Observer Z1 or Axiovert 200M under the control of LSM software (Carl Zeiss, Oberkochen, Germany). Images were processed using ImageJ or Photoshop (Adobe, San Jose, CA, USA).
Figure 3 Inhibition of MYPT1 phosphorylation by the Rho-kinase-binding fragment of MYPT1. (A,B) Effect of the overexpression of Rho-kinase-binding MYPT1 fragments on GFP-MYPT1 phosphorylation in COS7 cells. Full-length GFP-MYPT1 and the GST-MYPT1 Rho-kinase binding fragment were transiently expressed in COS7 cells. The cell lysates were analyzed by immunoblot analysis using anti-MYPT1-pT855 (top panel), anti-GFP (middle), or anti-GST (bottom) antibodies. The phospho-GFP-MYPT1 levels were quantified and normalized by GFP-MYPT1 levels. Data represent means ± SD. **, p < 0.01, ***, p < 0.001 as compared with the control. (C) Effect of the overexpression of Rho-kinase-binding MYPT1 fragments on stress fiber formation in NIH3T3 cells. GST-MYPT1 fragments were expressed in NIH3T3 cells. The cells were fixed in formaldehyde, and immunostained with phalloidin and anti-GST antibody. […] The percentages of cells with stress fibers throughout the cell (SF(++)), cells with stress fibers partly in the cell (SF(+)), and cells without stress fibers (SF(–)) were analyzed. […]

[5] = biological target: GFP-Rho-kinase-cat-L (6–553 aa, long form of catalytic fragment) (bovine)

T1 sequence (Q28021 6-553): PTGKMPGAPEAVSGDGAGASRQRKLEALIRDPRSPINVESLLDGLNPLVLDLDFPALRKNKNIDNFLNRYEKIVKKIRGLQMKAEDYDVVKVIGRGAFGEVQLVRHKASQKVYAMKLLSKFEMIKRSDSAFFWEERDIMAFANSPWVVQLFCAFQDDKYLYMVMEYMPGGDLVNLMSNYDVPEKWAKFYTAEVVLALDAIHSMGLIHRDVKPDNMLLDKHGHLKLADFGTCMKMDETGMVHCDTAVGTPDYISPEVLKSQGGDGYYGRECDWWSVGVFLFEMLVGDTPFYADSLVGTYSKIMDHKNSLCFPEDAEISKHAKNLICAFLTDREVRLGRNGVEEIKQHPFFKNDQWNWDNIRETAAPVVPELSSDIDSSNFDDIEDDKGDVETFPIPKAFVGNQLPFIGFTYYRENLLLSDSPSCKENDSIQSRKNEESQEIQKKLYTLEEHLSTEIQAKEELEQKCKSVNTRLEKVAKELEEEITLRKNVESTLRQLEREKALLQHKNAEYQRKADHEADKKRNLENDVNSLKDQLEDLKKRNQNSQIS

Molecule: QSRRAAQGVTLTDLQEAEKTIGRS [PS1 + DM1, synthetic peptide, MYPT1 692–715 aa, pseudosubstrate 1 plus docking motif 1]
Inhibition of Rho-kinase activity at higher concentration (in words) ([1]; 100 μM peptide, data not shown): mild inhibitory effect
Inhibition of Rho-kinase-cat-L activity (in words) [1]: did not show an inhibitory effect

Molecule: KSQPKSIRERRRPR [DM2, synthetic peptide, MYPT1 836–849 aa, docking motif 2]
Inhibition of Rho-kinase-cat-L activity (in words) [1]: moderately inhibited

B1: MYPT1-655-715 aa: GST-fused MYPT1 fragment 655–715 aa (protein, UniProt Q10728 655-715, looked up, fragment)
chain: GTLSSTSEVRERRRSYLTPVRDEESESQRKARSRQARQSRRSTQGVTLTDLQEAEKTIGRS
modifications: also: GST fusion
notes: GST-fused MYPT1 fragment 655–715 aa
Effect on phosphorylation of GFP-MYPT1 at Thr855 [3]: decreased the phosphorylation of MYPT1
Effect on actin stress fiber formation [4]: rather enhanced stress fiber formation

B2: MYPT1-684–868 aa: GST-fused rat MYPT1 fragment 684–868 aa containing DMs and four phosphorylation sites (protein)
chain: KARSRQARQSRRSTQGVTLTDLQEAEKTIGRSRSTRTREQENEEKDKEEKEKQDKEKQEEKKESEVSREDEYKQKYSRTYDETYARYRPVSTSSSSTPSSSSLSTLGSSLYASSQLNRPNSLVGITSAYSRGLTKDNEREGEKKEEEKEGEDKSQPKSIRERRRPREKRRSTGVSFWTQDSDENE
modifications: left off: GST, end not stated, kept
notes: GST-fused rat MYPT1 fragment 684–868 aa containing DMs and four phosphorylation sites
Inhibition of Rho-kinase-cat-L activity (in words) [1]: inhibited the Rho-kinase-cat-L activity in a dose-dependent manner
Effect on phosphorylation of GFP-MYPT1 at Thr855 [3]: strongly inhibited
Effect on actin stress fiber formation [4]: reduced actin stress fibers

Molecule: RKARSRQARQSRRAAQGVTLT (not fully specified) [PS1 + DM3 synthetic peptide (MYPT1 683–703 aa)]
IC50 of inhibition of the in vitro kinase activity of GST-Rho-kinase-cat-L on the S6 rsk substrate peptide (Figure 4E) [5]: < 1 µM

The next lines start with results.

IC50 [1]: < 1 µM
Molecule: CC(C)C[C@H](NC(=O)[C@@H](NC(=O)[C@@H](NC(=O)CNC(=O)[C@H](CCC(N)=O)NC(=O)[C@H](C)NC(=O)[C@H](C)NC(=O)[C@H](CCCNC(=N)N)NC(=O)[C@H](CCCNC(=N)N)NC(=O)[C@H](CO)NC(=O)[C@H](CCC(N)=O)NC(=O)[C@H](CCCNC(=N)N)NC(=O)[C@H](C)NC(=O)[C@H](CCC(N)=O)NC(=O)[C@H](CCCNC(=N)N)NC(=O)[C@H](CO)NC(=O)[C@H](CCCNC(=N)N)NC(=O)[C@H](C)NC(=O)[C@H](CCCCN)NC(=O)[C@@H](N)CCCNC(=N)N)C(C)C)[C@@H](C)O)C(=O)N[C@H](C(=O)O)[C@@H](C)O [PS1 + DM3] (H-RKARSRQARQSRRAAQGVTLT-OH; N-terminus and C-terminus assumed)
Inhibition of Rho-kinase-cat-L activity (in words) [1]: inhibited Rho-kinase activity to a similar extent as PS2 + DM2

IC50 [1]: < 1 µM
Inhibition of Rho-kinase-cat-L activity (in words) [1]: strongly inhibited
Inhibition of phosphorylation of MLC by Rho-kinase ([2]; substrate GST-MLC (1 µM)): inhibited
Inhibition of phosphorylation of MYPT1 by Rho-kinase ([2]; substrate GST-MYPT1-684-868 aa (0.5 µM)): inhibited
Inhibition of phosphorylation of Scrib by Rho-kinase ([2]; substrate GST-Scrib-C (1235-1630 aa) (1 µM)): inhibited
Molecule: CC[C@H](C)[C@H](NC(=O)[C@H](CO)NC(=O)[C@H](CCCCN)NC(=O)[C@@H]1CCCN1C(=O)[C@H](CCC(N)=O)NC(=O)[C@H](CO)NC(=O)[C@@H](N)CCCCN)C(=O)N[C@@H](CCCNC(=N)N)C(=O)N[C@@H](CCC(=O)O)C(=O)N[C@@H](CCCNC(=N)N)C(=O)N[C@@H](CCCNC(=N)N)C(=O)N[C@@H](CCCNC(=N)N)C(=O)N1CCC[C@H]1C(=O)N[C@@H](CCCNC(=N)N)C(=O)N[C@@H](CCC(=O)O)C(=O)N[C@@H](CCCCN)C(=O)N[C@@H](CCCNC(=N)N)C(=O)N[C@@H](CCCNC(=N)N)C(=O)N[C@@H](C)C(=O)N[C@@H](C)C(=O)NCC(=O)N[C@H](C(=O)N[C@@H](CO)C(=O)N[C@@H](Cc1ccccc1)C(=O)N[C@@H](Cc1c[nH]c2ccccc12)C(=O)O)C(C)C [PS2 + DM2] (H-KSQPKSIRERRRPREKRRAAGVSFW-OH; N-terminus and C-terminus assumed)

IC50 of inhibition of the in vitro kinase activity of GST-Rho-kinase-cat-L on the S6 rsk substrate peptide (Figure 4D) [5]: < 1 µM
Molecule: KSQPKSIRERRRPREKRRAAGVSFW (not fully specified) [PS2 + DM2 synthetic peptide (MYPT1 836–860 aa)]

From publication PMC8869655, “Identification of the Kinase-Substrate Recognition Interface between MYPT1 and Rho-Kinase” (Biomolecules, 2022)
